Source: patent US20130136778A1, “PTEROSTILBENE (PTER) FOR USE IN THE PREVENTION AND/OR TREATMENT OF SKIN DISEASES, DAMAGES OR INJURIES” (GREEN MOLECULAR, S.L., priority 2009, published 2013)

What was measured:
[1] = Asensi et al. 2002; cited from earlier work
SKH-1 mice [2] = experiment: Skinfold thickness (edema) after acute UV-B exposure of 360 mJ/cm2; format: in vivo; details: FIG. 1
Procedure: UVB Acute exposure protocols were used: Mice underwent a single exposure of 360 mJ/cm2. The study was conducted at 24 hours after exposure. This protocol was used to evaluate the photoprotective effect of the compounds studied. With the same acute-phase protocol mice from all groups were irradiated. Subsequently mice remained in the animal storage area for a week to see the evolution of the inflammatory response and edema. For the UVB exposure studies (chronic or acute) a topical administration to the back of the mouse was conducted. The commercial sunscreens were applied directly on the mouse. The polyphenols in the study were administered in a liposomal preparation diluted 1:1 with Carbopol polymer which will be the vehicle for these liposomes. Each polyphenol dose administered was 10 μmol/mouse, as free acid. • 1. Edema formation: skinfold thickness was determined with a caliper 24 hours after the first exposure. • 2. Study of the thickness of the epidermis after exposure to acute irradiation (360 mj/cm^2 24 h hours and 7 days after irradiation). • 3. Histological studies: measuring, in the pictures obtained from histological sections, the thickness of the epidermis. With the purpose of assessing the effects of the photoprotective compounds studied, female mice SKH-1 of between 6-8 weeks old were subjected to a single exposure of 360 mJ/cm. For the ultraviolet B (UVB) irradiation exposure, a camera specifically prepared, available at our laboratory was used (Crosslinker; Bio-Link BLX 254) equipped with 5 tubes that produce 80% of the UVB radiation, with a maximum emission of 312 nm. The two protocols of UV-B exposure used were: • Intense exposure after a single exposure of 360 mJ/cm^2. The study was carried out 24 hours after the exposure. This protocol was used to assess the photoprotective effects of the compounds studied. • Intense exposure after a single exposure of 360 mJ/cm^2. The study was carried out 1 week after the exposure. The mice were kept in the shed for a week to observe the evolution of the inflammatory and edematous response. As reference, several commercial photoprotective products were used ([…] Heliocare). The reference compounds as well as the products object of this study, were applied on the back of the mice for 20 minutes after or 20 minutes before the irradiation with UV-B, to determine if the reaction observed was due to an effect of the solar filter or not. […] The skinfold was measured by making a fold on the skin from the back of the mice, from the axillae to the hips; the fold was measured with a vernier caliper. The increase in the fold was calculated by the difference between the initial point, before the effects of the reaction, and the thickness in each point.

SKH-1 mice [3] = experiment: Experimental psoriasis induced by TPA; format: in vivo
Procedure: For the induction of psoriasis, the agent “12-O-tetradecanoylphorbol-13 acetate” (TPA) was used.
Since our objective was to assess the progress of the lesions caused by psoriasis in combination with the use of polyphenols, a model of continuous exposure and a weaker concentration of TPA were used, on a daily dose of 2 nmoles of TPA over a period of a week, which allowed us to observe the progress of the psoriasis.
The induction was performed with 2 nmol TPA/mouse on an area of 1 cm^2, applying 10 μL of the 200 μM solution in acetone. This application protocol was carried out taking into account that when applying 20 μL as stated in the model, the volume increased considerably and it lost its concentration, therefore it was decided to make it more concentrated.
As a standard treatment, Dexamethasone was used, (from Sigma Solution 25 mM in acetone). The administration of the standard treatment and the products to be tested were given 30 minutes prior to the application of TPA, both beginning on the same day.
The groups, of 6 mice, for this assessment were: • Not treated. • Reference compound: 0.5 μmoles of Dexamethasone (200 μL of one solution 25 mM in acetone). • Medium: 200 μl of vacuumed Liposomes. • Resveratrol: 200 μL of Resveratrol Liposomes (10 μmol in total). • PTER: 200 μL of PTER Liposomes (10 μmol in total). • QUER: 200 μL of QUER Liposomes (10 μmol in total). • PTER+QUER:: 200 μL of PTER Liposomes+QUER (10 μmol in total).
At 24 hours (day 7) after the last administration of the different treatments and TPA, 3 mice from each group were sacrificed and their skin fixed with 4% PFA. The remaining mice were kept under the treatment with no exposure to TPA, to verify if the skin recovered faster on the treatment than on its own. At 24 hours (day 9) after the last administration of the different treatments the rest of the mice were sacrificed and their skin fixed with 4% PFA.
The flaky aspect of the skin was quantified in a scale of 0-3, being 0, nothing; 1, mild; 2, moderate; 3, severe.

SKH-1 mice [4] = experiment: Thickness of the epidermis after acute UV-B exposure of 360 mJ/cm2; format: in vivo; details: FIG. 2, versus group treated only with UV-B
Procedure: UVB Acute exposure protocols were used: Mice underwent a single exposure of 360 mJ/cm2. The study was conducted at 24 hours after exposure. This protocol was used to evaluate the photoprotective effect of the compounds studied. With the same acute-phase protocol mice from all groups were irradiated. Subsequently mice remained in the animal storage area for a week to see the evolution of the inflammatory response and edema. • 1. Edema formation: skinfold thickness was determined with a caliper 24 hours after the first exposure. • 2. Study of the thickness of the epidermis after exposure to acute irradiation (360 mj/cm^2 24 h hours and 7 days after irradiation). • 3. Histological studies: measuring, in the pictures obtained from histological sections, the thickness of the epidermis. For studies of acute exposure skin samples were taken from the back of the mouse. These samples were fixed with 4% paraformaldehyde (24 hours) and embedded in paraffin. Following cutting the samples were stained with hematoxylin and eosin. The two protocols of UV-B exposure used were: • Intense exposure after a single exposure of 360 mJ/cm^2. The study was carried out 24 hours after the exposure. This protocol was used to assess the photoprotective effects of the compounds studied. • Intense exposure after a single exposure of 360 mJ/cm^2. The study was carried out 1 week after the exposure. The mice were kept in the shed for a week to observe the evolution of the inflammatory and edematous response. At 24 hours or 1 week after the administration of the different treatments the mice were sacrificed and their skin fixed with 4% PFA. To measure the thickness of the epidermis to evaluate possible hyperplasia, a computer program was used, Image J, calibrated with the assistance of a Neubauer camera which allowed the measuring of the epidermis. Results obtained were statistically analyzed by ANOVA and contrasted by the Tukey test and grouped according to the significant differences. […] Therefore PTER alone could be used efficiently in the prevention of skin diseases, injuries or damages induced by ultraviolet B radiation. The evaluation of skin thickness was carried out by using computer software (IMAGE J). Results obtained by ANOVA were contrasted by the Tukey test and grouped according to the significant differences. […] Therefore PTER separately could be used efficiently in the prevention of skin diseases, damages or injuries induced by ultraviolet B radiation.

SKH-1 mice [5] = experiment: Anatomopathological study of the skin after chronic exposure to UV-B; format: in vivo; set-up: key to Stroma: Parakeratosis: (+) light; (+++) serious; details: after 30 weeks chronic UV-B 180 mJ/cm2
Procedure: Histochemical techniques were used to study the skin tissues of the different procedures, at a microscopic level.
The tissues were fixed in 4% formaldehyde in PBS over 24 h at 22° C. After the tissues were fixed, they had to be dehydrated in large amounts of ethanol and placed in a hydrophobic and xylene mixture to allow the paraffin to penetrate the tissues to provide sufficient consistency for slicing them thinly in a microtome.
The samples in paraffin were processed with the microtome obtaining slices of about 5-10 μm. The samples were spread over a drop of gelatin at 37° C. and were collected in gelatinized slides.
The protocol used for staining the samples was: • 1. Incubation with Mayer's Hematoxylin for 10-15 minutes. • 2. Wash under running water until bluish. • 3. Incubate with Eosin (1%) for 2-4 minutes. • 4. Eliminate the remaining eosin in ethanol 70° • 5. Dehydration. • 6. Rinse with xylol for 3 minutes. • 7. Let the trays dry out on the stove at 37°.
In relation to the histopathological exam of the tumors induced by chronic irradiation to UV in the SKH1 mice, it was confirmed that the treatment with UV-B produced a strong acanthosis due primarily to the inflammatory process; this gave way to the first signs of tumors, mostly of carcinoma type and not melanoma.
Both the reference compounds and the ones subject of this study (10 μmoles/mouse of polyphenols, or 200 μl of each photoprotector) were applied to the back of the mice for 20 minutes prior to their exposure to UV-B. Medium of groups of 20 mice. Every parameter was measured according to the degree of seriousness (+) light-(+++) serious.

[6] = Absorption spectrum of polyphenols (mechanical filter capacity); format: physicochemical; details: 1 mM in pure ethanol, 200-800 nm
Procedure: A solution of 1 mM of each polyphenol was prepared (PTER, Resveratrol and QUER) in absolute ethanol (HPLS quality; Quima) and the absorption spectrum was studied between 200 and 800 nm using a Multiskan Spectrum (ThermoScientific).
With the purpose of studying the capacity of the polyphenols used in this study, we decided to evaluate the absorption of light throughout the ultraviolet light spectrum as shown in FIG. 13.

mice = experiment: Skinfold after continuous administration of treatments (side effects on skin); format: in vivo; details: daily for 6 consecutive days; 10 μmoles/mouse polyphenols, 0.5 μmoles/mouse dexamethasone
Procedure: FIG. 17. […] The application of the treatments 10 μmoles/mouse of polyphenols and 0.5 μmoles/mouse of dexamethasone was performed daily on a third of the back of the mice for 6 consecutive days. The skinfold was measured with the help of a vernier caliper.*p>0.001 with regards to the control. ANOVA followed by a Tukey test.
Prior to evaluating the results of different treatments on different models of dermatitis, the possible side effects of continues administration of polyphenols on the skin of the mice had to be evaluated as shown in FIG. 17. For this purpose, the dose for this daily evaluation was administered over 6 consecutive days.

Oc1ccc(/C=C/c2cc(O)cc(O)c2)cc1 [RESV, 3,4′,5-trihydroxy-trans-stilbene, reference compound]
bioavailability [1]: low bioavailability
formation of the edema (thickness of the skin) after severe UV-B exposure (SKH-1 mice [2]): the formation of the edema was reduced
increase of skinfold throughout the procedure (SKH-1 mice [3]; FIG. 23, 6 consecutive days, treatment 30 min prior to 2 nmol TPA): the evolution was similar with an increase in the formation of edema
increase in the skinfold 24 hours after the first administration of TPA (SKH-1 mice [3]; FIG. 24, treatment 30 min prior to 2 nmol TPA): did not produce any effect on the increase of the skinfold in comparison to the TPA group
histological analysis of the lesions (SKH-1 mice [3]; FIG. 28, hematoxylin-eosin, TPA daily over 7 days): resembles more the group treated with TPA, than the group with PTER
thickness of the epidermis 24 hours after irradiation (before or after application) (SKH-1 mice [4]): good photoprotection role but not as a repairer
Tumor (no/mouse × group) (SKH-1 mice [5]; Table 4, applied 20 min prior): 3.8
Stroma: Parakeratosis (SKH-1 mice [5]; degree of seriousness): +
absorption of light, range of maximum absorption [6]: peaks or maximum absorption in the range of Ultraviolet B

C[C@@H]1C[C@H]2[C@@H]3CCC4=CC(=O)C=C[C@]4(C)[C@@]3(F)[C@@H](O)C[C@]2(C)[C@@]1(O)C(=O)CO [dexamethasone]
skinfold / structure of the skin after continuous administration (mice): did have side effects on the structure of the skin
